Assay results published in patent US20210038607A1, “OXADIAZOLYLTHIOPHENE DERIVATIVES USEFUL AS HISTONE DEACETYLASE INHIBITORS” (Karus Therapeutics Limited, priority 2018, published 2021).

How the values were obtained:
[1] = target: T1, Human HDAC7 (Homo sapiens, UniProt Q8WUI4); test: HDAC7 biochemical assay, class IIa-specific substrate; conditions: read-out: HDAC Isoform IC50 (nM) 7
T1 construct: (a.a. 518-end) with N-terminal GST tag; GST (N); host or cells: baculovirus expression system
T1 sequence (Q8WUI4 518-952 limits assumed): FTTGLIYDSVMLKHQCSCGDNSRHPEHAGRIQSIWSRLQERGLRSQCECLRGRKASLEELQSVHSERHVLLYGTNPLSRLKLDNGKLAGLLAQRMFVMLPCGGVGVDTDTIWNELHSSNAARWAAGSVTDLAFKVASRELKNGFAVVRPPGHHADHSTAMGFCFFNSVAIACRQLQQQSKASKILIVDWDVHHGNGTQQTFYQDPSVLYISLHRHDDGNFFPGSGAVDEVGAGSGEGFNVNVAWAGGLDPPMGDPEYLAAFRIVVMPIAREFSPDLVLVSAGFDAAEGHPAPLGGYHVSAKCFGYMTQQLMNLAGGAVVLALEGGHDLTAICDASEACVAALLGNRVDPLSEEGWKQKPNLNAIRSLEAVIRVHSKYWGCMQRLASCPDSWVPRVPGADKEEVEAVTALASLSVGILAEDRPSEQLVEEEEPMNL
Method in brief: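 GST-tagged HDAC7 (a.a. 518-end, baculovirus-expressed) at 0.001 ng/ul with 50 μM Boc-Lys(trifluoroacetyl)-AMC substrate, 30 min at room temperature in pH 8.0 Tris buffer with BSA, 1% DMSO final. Developer then releases AMC; fluorescence read at 360/460 nm.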

[2] = target: T2, Human HDAC5 (Homo sapiens, UniProt Q9UQL6); test: HDAC5 biochemical assay, class IIa-specific substrate; conditions: read-out: HDAC Isoform IC50 (nM) 5
T2 construct: full length with C-terminal His tag, MW=51.1 kDa; His (C); host or cells: baculovirus expression system
Method in brief: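 Full-length C-terminal His-tagged HDAC5 from baculovirus (0.05 ng/ul) incubated 30 min at room temperature with 50 μM Boc-Lys(trifluoroacetyl)-AMC and compound, Tris pH 8.0 buffer with BSA, 1% DMSO. Developer then releases AMC; fluorescence 360/460 nm.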

[3] = target: T3, Human HDAC10 (Homo sapiens, UniProt Q969S8); test: HDAC10 biochemical assay, AMC-labeled peptide substrate; conditions: read-out: HDAC Isoform IC50 (nM) 10
T3 construct: Human HDAC10 (a.a. 1-481); GST (N); His (C); host or cells: baculovirus expression system
T3 sequence (Q969S8 1-481): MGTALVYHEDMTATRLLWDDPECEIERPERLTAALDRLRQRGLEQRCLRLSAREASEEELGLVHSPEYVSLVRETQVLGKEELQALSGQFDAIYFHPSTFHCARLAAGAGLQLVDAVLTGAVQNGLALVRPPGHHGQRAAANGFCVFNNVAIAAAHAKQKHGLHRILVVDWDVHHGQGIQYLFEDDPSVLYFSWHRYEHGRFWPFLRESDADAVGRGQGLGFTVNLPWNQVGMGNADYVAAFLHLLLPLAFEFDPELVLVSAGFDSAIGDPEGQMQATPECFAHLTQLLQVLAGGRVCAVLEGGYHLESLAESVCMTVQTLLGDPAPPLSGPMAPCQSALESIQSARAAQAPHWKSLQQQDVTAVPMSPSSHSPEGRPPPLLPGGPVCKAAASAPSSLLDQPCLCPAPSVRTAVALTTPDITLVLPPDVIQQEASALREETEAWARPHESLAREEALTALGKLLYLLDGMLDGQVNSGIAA
Method in brief: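 Baculovirus-expressed GST/His-tagged human HDAC10 (aa 1-481), 12 ng/ul, incubated with 50 μM RHKK(Ac)AMC in Tris pH 8.0 buffer with BSA and 1% DMSO, 2 h at 30 °C. Developer then releases AMC, read at 360/460 nm.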

[4] = target: T4, Human HDAC2 (Homo sapiens, UniProt Q92769); test: HDAC2 biochemical assay, AMC-labeled peptide substrate; conditions: read-out: HDAC Isoform IC50 (nM) 2
T4 construct: full length with C-terminal GST-tag; GST (C); host or cells: baculovirus expression system
Method in brief: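 Full-length human HDAC2 with C-terminal GST tag, baculovirus-expressed, at 0.07 ng/ul with 50 μM RHKK(Ac)AMC substrate in Tris-HCl pH8.0 buffer with BSA, 1% DMSO final. Incubated 1 hour at 30° C with compounds, then developer added; fluorescence read at 360/460 Ex/Em.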

[5] = target: T5, Human HDAC9 (Homo sapiens, UniProt Q9UKV0); test: HDAC9 biochemical assay, class IIa-specific substrate; conditions: read-out: HDAC Isoform IC50 (nM) 9
T5 construct: amino acids 604-1066 with C-terminal His tag; His (C); host or cells: baculovirus expression system
Method in brief: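 HDAC9 residues 604-1066 (C-terminal His tag, baculovirus-expressed) at 0.06 ng/ul with 50 μM class IIa substrate Boc-Lys(trifluoroacetyl)-AMC in Tris-HCl pH 8.0 buffer with BSA and 1% DMSO. 30 min at room temperature, then developer added; fluorescence read at 360/460 nm Ex/Em.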

T2 sequence (Q9UQL6 656-1122 limits assumed): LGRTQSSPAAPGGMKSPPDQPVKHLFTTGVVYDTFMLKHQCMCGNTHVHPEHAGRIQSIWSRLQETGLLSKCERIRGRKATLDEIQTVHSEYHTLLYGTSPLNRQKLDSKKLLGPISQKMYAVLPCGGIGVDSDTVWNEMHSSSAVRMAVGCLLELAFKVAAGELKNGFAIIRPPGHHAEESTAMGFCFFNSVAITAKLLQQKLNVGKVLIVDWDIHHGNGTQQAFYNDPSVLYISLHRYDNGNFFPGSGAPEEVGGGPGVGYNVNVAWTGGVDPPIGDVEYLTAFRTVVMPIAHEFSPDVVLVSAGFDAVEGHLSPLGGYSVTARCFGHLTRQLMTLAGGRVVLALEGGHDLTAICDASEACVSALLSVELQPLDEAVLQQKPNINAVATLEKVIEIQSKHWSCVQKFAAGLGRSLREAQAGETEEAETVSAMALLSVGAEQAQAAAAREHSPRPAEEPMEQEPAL
T4 sequence (Q92769 whole entry, canonical isoform): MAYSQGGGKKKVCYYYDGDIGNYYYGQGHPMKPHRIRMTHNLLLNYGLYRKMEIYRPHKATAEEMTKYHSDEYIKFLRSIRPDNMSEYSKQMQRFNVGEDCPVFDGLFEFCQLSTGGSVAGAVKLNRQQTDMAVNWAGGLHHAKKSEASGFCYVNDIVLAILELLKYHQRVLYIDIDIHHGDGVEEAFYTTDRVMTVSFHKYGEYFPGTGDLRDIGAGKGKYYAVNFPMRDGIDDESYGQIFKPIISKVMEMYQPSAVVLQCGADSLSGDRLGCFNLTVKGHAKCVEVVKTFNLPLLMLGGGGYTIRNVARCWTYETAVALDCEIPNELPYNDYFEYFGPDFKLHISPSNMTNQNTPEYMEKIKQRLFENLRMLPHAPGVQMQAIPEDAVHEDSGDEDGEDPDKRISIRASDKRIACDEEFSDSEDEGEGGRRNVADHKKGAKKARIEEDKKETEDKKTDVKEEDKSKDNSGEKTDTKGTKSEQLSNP
T5 sequence (Q9UKV0 604-1066 isoform Q9UKV0-5): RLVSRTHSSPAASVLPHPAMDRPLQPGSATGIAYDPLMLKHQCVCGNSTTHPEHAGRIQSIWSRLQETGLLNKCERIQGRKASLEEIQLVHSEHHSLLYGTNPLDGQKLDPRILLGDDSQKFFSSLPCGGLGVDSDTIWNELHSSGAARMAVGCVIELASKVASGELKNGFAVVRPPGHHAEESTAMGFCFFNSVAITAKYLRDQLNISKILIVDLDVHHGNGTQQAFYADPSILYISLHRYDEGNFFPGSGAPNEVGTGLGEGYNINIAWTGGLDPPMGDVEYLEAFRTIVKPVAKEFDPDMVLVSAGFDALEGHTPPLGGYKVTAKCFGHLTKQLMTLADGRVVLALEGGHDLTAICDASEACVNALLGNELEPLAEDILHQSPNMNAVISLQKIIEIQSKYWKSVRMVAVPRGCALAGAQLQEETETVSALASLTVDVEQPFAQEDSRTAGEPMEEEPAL

IC50 [1] [nM]	IC50 [2] [nM]	IC50 [3] [nM]	IC50 [4] [nM]	IC50 [5] [nM]	Structure (SMILES)
≤ 1000	≤ 500	> 10000	> 10000	≤ 10000	CS(=O)(=O)c1ccc(N(Cc2ccc(-c3noc(C(F)(F)F)n3)s2)c2cnccn2)nn1 [Example DL, 6-Methanesulfonyl-N-(pyrazin-2-yl)-N-({5-[5-(trifluoromethyl)-1,2,4-oxadiazol-3-yl]thiophen-2-yl}methyl)pyridazin-3-amine]
≤ 1000	≤ 1000	> 10000	> 10000	≤ 10000	FC(F)(F)c1nc(-c2ccc(CN(c3cnccn3)c3ccc(N4CCCC4)nn3)s2)no1 [Example DI, N-(Pyrazin-2-yl)-6-(pyrrolidin-1-yl)-N-({5-[5-(trifluoromethyl)-1,2,4-oxadiazol-3-yl]thiophen-2-yl}methyl)pyridazin-3-amine]
≤ 10000	≤ 10000	> 10000	> 10000	≤ 10000	FC(F)(F)c1nc(-c2ccc(CN(c3ccccn3)c3cnccn3)s2)no1 [Example V, N-(Pyridin-2-yl)-N-({5-[5-(trifluoromethyl)-1,2,4-oxadiazol-3-yl]thiophen-2-yl}methyl)pyrazin-2-amine]

Further lines, the compound ahead of its results:

Structure (SMILES)	IC50 [1] [nM]	IC50 [2] [nM]	IC50 [3] [nM]	IC50 [4] [nM]	IC50 [5] [nM]
FC(F)(F)c1ccc(N(Cc2ccc(-c3noc(C(F)(F)F)n3)s2)c2cnccn2)nn1 [Example DH, N-(Pyrazin-2-yl)-6-(trifluoromethyl)-N-({5-[5-(trifluoromethyl)-1,2,4-oxadiazol-3-yl]thiophen-2-yl}methyl)pyridazin-3-amine]	≤ 10000	≤ 1000	> 10000	> 10000	≤ 10000
CS(=O)(=O)c1nccc(N(Cc2ccc(-c3noc(C(F)(F)F)n3)s2)c2cnccn2)n1 [Example CE, 2-Methanesulfonyl-N-(pyrazin-2-yl)-N-({5-[5-(trifluoromethyl)-1,2,4-oxadiazol-3-yl]thiophen-2-yl}methyl)pyrimidin-4-amine]	≤ 1000	≤ 1000	–	–	≤ 10000
FC(F)(F)c1nc(-c2ccc(CN(c3cncnc3)c3cnccn3)s2)no1 [Example CR, N-(Pyrazin-2-yl)-N-({5-[5-(trifluoromethyl)-1,2,4-oxadiazol-3-yl]thiophen-2-yl}methyl)pyrimidin-5-amine]	≤ 500	≤ 500	> 10000	> 10000	≤ 500
FC(F)(F)c1nc(-c2ccc(CN(c3ccncn3)c3cnccn3)s2)no1 [Example BZ, N-(Pyrazin-2-yl)-N-({5-[5-(trifluoromethyl)-1,2,4-oxadiazol-3-yl]thiophen-2-yl}methyl)pyrimidin-4-amine]	≤ 500	≤ 500	> 10000	> 10000	≤ 500
